Measured values: paper PMC10812672, “Short Antimicrobial Peptide Derived from the Venom Gland Transcriptome of Pamphobeteus verdolaga Increases Gentamicin Susceptibility of Multidrug-Resistant Klebsiella pneumoniae” (Antibiotics, 2023)
Ends that are not written are not given here.

Experiments:
E. coli ATCC® 25922 [1] = type: cell-based, Escherichia coli; conditions: CLSI broth microdilution, Mueller-Hinton broth, peptide 30 µM, ~6 × 10^6 CFU/mL, 24 h 37 °C, OD600; triplicate, three independent assays; NA = no activity
Description: (§1) Activity screening was conducted using the broth microdilution method at a fixed peptide concentration of 30 µM against E. coli ATCC® 8739 and 25922, as well as S. aureus ATCC® 6538 and 29213. The bacterial density used for screening was approximately 6 × 10^6 CFU/mL [30]. Peptide activity measurements were conducted in terms of the growth inhibition percentage. No dose-response curves were generated during the screening phase as a resource optimization strategy in the initial activity evaluation. […] For S. aureus ATCC® 6538 and S. aureus ATCC® 29213, growth inhibition ranged from 0% to 140% and 0% to 98%, respectively (Table 1).
(§2) The evaluation of the antimicrobial activity of the peptides was conducted using the CLSI’s broth microdilution method for bacterial susceptibility testing. For the screening phase, peptides were evaluated at a single 30 μM concentration, in triplicate and in three independent assays, against the E. coli ATCC® 8739, E. coli ATCC® 25922, S. aureus ATCC® 6538, or S. aureus ATCC® 29213 reference USP and CLSI strains. For the determination of MIC, MBC, or IC50, peptides or antibiotics were evaluated in concentrations between 1.56–200 µM. These evaluations were conducted in triplicate and in three independent assays, against the E. coli ATCC® 25922, S. aureus ATCC® 29213, E. faecalis ATCC® 49532, P. aeruginosa ATCC® 9027, and K. pneumoniae ATCC® BAA-1705, or the clinically isolated MDR strain. In detail, 1 mL of a glycerol stock solution of the ATCC® or clinically isolated bacterial strain was added to 9 mL of Mueller-Hinton Broth and incubated for 18 h, 180 rpm and 37 °C (Incubator 1000, Heidolph Instruments, Schwabach, Germany). After the incubation, 1 mL of the previous solution was transferred to a new recipient containing 9 mL of fresh Mueller-Hinton broth and incubated for 4 h, 180 rpm and 37 °C (Incubator 1000, Heidolph Instruments, Schwabach, Germany). During the second incubation, the peptides or the antibiotics were dissolved in PBS pH 7.20 in concentrations between 19.53–2500 µM (MC5 Micro Balance, Sartorius AG, Göttingen, Germany). An amount of 10 µL of either peptide or antibiotic was dispensed in triplicate in 96-well flat bottom culture plates, along with 10 µL of PBS (Negative activity control), BTM-P1 (Positive activity control), or 10 µL of Mueller-Hinton broth (Blank); then, 110 µL of Mueller-Hinton broth was poured in all wells. Following this, the bacteria were suspended in Mueller-Hinton broth up to a concentration of approximately 1.50 × 10^8 CFU/mL, as measured by optical density at 600 nm between 0.06 to 0.11 (0.5 McFarland standard), in a Multiskan SkyHigh spectrophotometer (ThermoFisher Scientific, Waltham, MA, USA). Amounts of 5 µL of the 1.50 × 10^8 CFU/mL suspension were added to each well (except for the blank) for a final well concentration of approximately 6 × 10^6 CFU/mL. The plate was incubated for 24 h at 37 °C (BE 500, Memmert GmbH, Büchenbach, Germany) and optical density was measured at 600 nm in a Multiskan SkyHigh spectrophotometer (ThermoFisher Scientific, Waltham, MI, USA). Following the measurement of optical density, plates were visually inspected to determine the MIC. Subsequently, 100 µL of the concentration associated to the MIC and 100 µL of the next higher concentration were added to Petri dishes containing Mueller-Hinton Agar. The dishes were then incubated for 24 h at 37 °C (BE 500, Memmert GmbH, Büchenbach, Germany). After incubation, the Petri dishes were visually inspected, and the MBC was determined in the absence of growth. IC50 values were interpolated from regressions with correlation values above 0.70. Growth inhibition percentages were calculated as follows: Growth inhibition %=1−AbsPEPTIDE or ANTIBIOTIC−Median AbsBLANK/Median AbsPBS−Median AbsBLANK×100

E. coli ATCC® 8739 = type: cell-based, Escherichia coli; conditions: CLSI broth microdilution, Mueller-Hinton broth, peptide 30 µM, ~6 × 10^6 CFU/mL, 24 h 37 °C, OD600; triplicate, three independent assays; NA = no activity
Description: as §1, §2

S. aureus ATCC® 6538 = type: cell-based, Staphylococcus aureus; conditions: CLSI broth microdilution, Mueller-Hinton broth, peptide 30 µM, ~6 × 10^6 CFU/mL, 24 h 37 °C, OD600; triplicate, three independent assays; NA = no activity
Description: as §1, §2

S. aureus ATCC® 29213 = type: cell-based, Staphylococcus aureus; conditions: CLSI broth microdilution, Mueller-Hinton broth, peptide 30 µM, ~6 × 10^6 CFU/mL, 24 h 37 °C, OD600; triplicate, three independent assays; NA = no activity
Description: as §1, §2

P. aeruginosa ATCC® 9027 = type: cell-based, Pseudomonas aeruginosa; conditions: for MIC: 1.56–200 µM, 24 h 37 °C, visual inspection, triplicate, three independent assays; for MBC: plating on Mueller-Hinton agar, absence of growth
Description: (§3) The nine AMPs identified in the initial screening were evaluated at concentrations between 1.56–200 µM, against E. coli ATCC® 25922, S. aureus ATCC® 29213, E. faecalis ATCC® 49532, P. aeruginosa ATCC® 9027, and K. pneumoniae ATCC® BAA-1705 (Supplementary Figures S2–S6). […] Only PvAMP66 and PvAMP172 reached the MBC for S. aureus at 50 µM and 100 µM, respectively (Table 2).
as §2

E. coli ATCC® 25922 [2] = type: cell-based, Escherichia coli; conditions: for MIC: 1.56–200 µM, visual inspection, triplicate, three independent assays; for MIC / MBC: 24 h 37 °C; for MBC: plating on Mueller-Hinton agar, absence of growth
Description: as §3, §2

[3] = system: multidrug-resistant (MDR) strain of K. pneumoniae, clinical isolate; assay: microbe, parasite or virus in culture; type: cell-based, Klebsiella pneumoniae; conditions: MDR K. pneumoniae; at 100 μM; complete resistance
Description: A multidrug-resistant (MDR) strain of K. pneumoniae was identified and isolated from a tertiary-level hospital in Medellin, Colombia, using the VITEK-2 system (bioMérieux, Marcy-l’Étoile, France). The MDR strain was evaluated against several antibiotics at concentrations of 1.56–100 μM. […] In contrast, the strain was susceptible to doxycycline (Supplementary Figure S7g) and chloramphenicol (Supplementary Figure S7h), with MICs of 50 μM and 100 µM, respectively (Table 3). […] All of P. verdolaga’s AMPs were evaluated against the clinical isolate at concentrations of 1.56–200 µM (Supplementary Figure S8). […] A growth inhibition kinetic assay was conducted. […] All of P. verdolaga’s peptides at 100 μM induced morphological changes in the MDR K. pneumoniae, indicating membrane interactions, even though no significant inhibition was observed (Supplementary Figure S9).
as §2, with “Growth inhibition percentages were calculated as follows: Growth inhibition %=1−AbsPEPTIDE or ANTIBIOTIC−Median AbsBLANK/Median AbsPBS−Median AbsBLANK×100” left out

ILKPFMLRR-NH2 [PvAMP84]
inhibition (E. coli ATCC® 25922 [1]): 11.3 ± 3.72%
E. coli ATCC® 8739 (Inhibition %) (E. coli ATCC® 8739): 24.29 ± 6.74 %

LLSKIFG-NH2 [PvAMP16]
S. aureus ATCC® 6538 (Inhibition %) (S. aureus ATCC® 6538): 42.06 ± 4.29 %
inhibition (S. aureus ATCC® 29213): 13.8 ± 6.48%

LLTGIKS-NH2 [PvAMP30]
S. aureus ATCC® 6538 (Inhibition %) (S. aureus ATCC® 6538): 35.52 ± 7.29 %
inhibition (S. aureus ATCC® 29213): 7.34 ± 10.3%

QCRKLCFRNRCLTYCRGRG-NH2 (disulfide (positions not given here)) [PvAMP183, predicted P. verdolaga AMP]
MIC (P. aeruginosa ATCC® 9027): 50 µM
IC50 (P. aeruginosa ATCC® 9027; growth inhibition OD600, 95% confidence interval in parentheses): 48.3 µM
MBC (P. aeruginosa ATCC® 9027): 100 µM
MIC (E. coli ATCC® 25922 [2]): 25 µM
IC50 (E. coli ATCC® 25922 [2]; growth inhibition OD600, interpolated from regression, 95% confidence interval in parentheses, read-out: IC50): 26.9 µM
MBC (E. coli ATCC® 25922 [2]): 50 µM
S. aureus ATCC® 6538 (Inhibition %) (S. aureus ATCC® 6538): 47.36 ± 1.27 %
inhibition (S. aureus ATCC® 29213): 4.71 ± 21.9%
E. coli ATCC® 25922 (Inhibition %) (E. coli ATCC® 25922 [1]): 64.66 ± 1.26 %
E. coli ATCC® 8739 (Inhibition %) (E. coli ATCC® 8739): 48.26 ± 2.41 %

RSVLKAHCRICRRRG-NH2 (disulfide) [PvAMP164, predicted P. verdolaga AMP]
MIC (P. aeruginosa ATCC® 9027): 100 µM
MBC (P. aeruginosa ATCC® 9027): 100 µM
MIC (E. coli ATCC® 25922 [2]): 200 µM
MBC (E. coli ATCC® 25922 [2]): 200 µM
S. aureus ATCC® 6538 (Inhibition %) (S. aureus ATCC® 6538): 24.49 ± 10.18 %
S. aureus ATCC® 29213 (Inhibition %) (S. aureus ATCC® 29213): 12.25 ± 1.29 %
E. coli ATCC® 25922 (Inhibition %) (E. coli ATCC® 25922 [1]): 30.10 ± 3.90 %
E. coli ATCC® 8739 (Inhibition %) (E. coli ATCC® 8739): 20.51 ± 4.31 %

SLFKFLA-NH2 [PvAMP8]
S. aureus ATCC® 6538 (Inhibition %) (S. aureus ATCC® 6538): 47.95 ± 3.62 %
inhibition (S. aureus ATCC® 29213): 11.9 ± 8.93%

SLWGMWR-NH2 [PvAMP7]
MIC (E. coli ATCC® 25922 [2]): 200 µM
S. aureus ATCC® 6538 (Inhibition %) (S. aureus ATCC® 6538): 37.89 ± 1.50 %
S. aureus ATCC® 29213 (Inhibition %) (S. aureus ATCC® 29213): 23.66 ± 3.34 %
E. coli ATCC® 25922 (Inhibition %) (E. coli ATCC® 25922 [1]): 18.21 ± 2.54 %
E. coli ATCC® 8739 (Inhibition %) (E. coli ATCC® 8739): 26.74 ± 0.68 %

YRARCVIYC-NH2 (disulfide) [PvAMP69, predicted P. verdolaga AMP]
MIC (E. coli ATCC® 25922 [2]): 200 µM
MBC (E. coli ATCC® 25922 [2]): 200 µM
S. aureus ATCC® 6538 (Inhibition %) (S. aureus ATCC® 6538): 32.32 ± 7.00 %
S. aureus ATCC® 29213 (Inhibition %) (S. aureus ATCC® 29213): 29.81 ± 3.31 %
E. coli ATCC® 25922 (Inhibition %) (E. coli ATCC® 25922 [1]): 19.08 ± 0.12 %
inhibition (E. coli ATCC® 8739): 1.75 ± 9.78%

penicillin
maximum growth inhibition [3]: ≤ 20%
